Test results: ChEMBL document CHEMBL1681726, “Discovery of orally available tetrahydroquinoline-based glucocorticoid receptor agonists” (Bioorg Med Chem Lett, 2011)

Assays:
[1] = AUC in Sprague-Dawley rat at 30 mg/kg, po; type: ADME, organism-based; design: dose 30 mg/kg, route oral; conditions: plasma
Glucocorticoid receptor [2] = target: T1, Glucocorticoid receptor (Homo sapiens, UniProt P04150); assay: Agonist activity at GR expressed in IL-1beta- and TNFalpha-stimulated HepG2 cells assessed as inhibition of NFKB- or AP-1 mediated E-selectin transcription by luciferase reporter gene assay relative to Dexamethasone; type: functional, cell-based
T1 sequence (P04150 whole entry): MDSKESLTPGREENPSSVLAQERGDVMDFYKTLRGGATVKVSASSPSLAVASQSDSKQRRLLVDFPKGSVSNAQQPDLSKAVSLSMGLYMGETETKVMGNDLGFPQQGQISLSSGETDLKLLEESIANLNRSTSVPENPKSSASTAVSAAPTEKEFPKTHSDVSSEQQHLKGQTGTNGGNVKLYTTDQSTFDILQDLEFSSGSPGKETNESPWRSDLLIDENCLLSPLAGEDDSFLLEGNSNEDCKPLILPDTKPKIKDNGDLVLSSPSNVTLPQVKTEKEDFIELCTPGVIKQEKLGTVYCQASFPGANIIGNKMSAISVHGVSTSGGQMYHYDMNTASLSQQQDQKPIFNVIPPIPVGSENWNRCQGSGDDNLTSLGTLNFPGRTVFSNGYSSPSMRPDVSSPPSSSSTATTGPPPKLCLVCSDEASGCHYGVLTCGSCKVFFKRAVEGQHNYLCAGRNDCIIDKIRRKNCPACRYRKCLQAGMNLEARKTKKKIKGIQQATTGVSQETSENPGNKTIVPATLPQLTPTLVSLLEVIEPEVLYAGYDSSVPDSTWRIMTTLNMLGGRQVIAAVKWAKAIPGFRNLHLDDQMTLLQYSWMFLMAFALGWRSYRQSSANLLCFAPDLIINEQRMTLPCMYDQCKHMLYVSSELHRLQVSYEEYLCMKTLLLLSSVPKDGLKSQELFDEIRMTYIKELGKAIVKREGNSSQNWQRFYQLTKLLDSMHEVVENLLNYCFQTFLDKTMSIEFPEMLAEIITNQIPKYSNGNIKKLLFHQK

[3] = Apparent half life in Sprague-Dawley rat at 30 mg/kg, po; type: ADME, organism-based; design: dose 30 mg/kg, route oral; conditions: in vivo
[4] = target: T2, Mineralocorticoid receptor (Homo sapiens, UniProt P08235); assay: Binding affinity to MR
T2 sequence (P08235 whole entry): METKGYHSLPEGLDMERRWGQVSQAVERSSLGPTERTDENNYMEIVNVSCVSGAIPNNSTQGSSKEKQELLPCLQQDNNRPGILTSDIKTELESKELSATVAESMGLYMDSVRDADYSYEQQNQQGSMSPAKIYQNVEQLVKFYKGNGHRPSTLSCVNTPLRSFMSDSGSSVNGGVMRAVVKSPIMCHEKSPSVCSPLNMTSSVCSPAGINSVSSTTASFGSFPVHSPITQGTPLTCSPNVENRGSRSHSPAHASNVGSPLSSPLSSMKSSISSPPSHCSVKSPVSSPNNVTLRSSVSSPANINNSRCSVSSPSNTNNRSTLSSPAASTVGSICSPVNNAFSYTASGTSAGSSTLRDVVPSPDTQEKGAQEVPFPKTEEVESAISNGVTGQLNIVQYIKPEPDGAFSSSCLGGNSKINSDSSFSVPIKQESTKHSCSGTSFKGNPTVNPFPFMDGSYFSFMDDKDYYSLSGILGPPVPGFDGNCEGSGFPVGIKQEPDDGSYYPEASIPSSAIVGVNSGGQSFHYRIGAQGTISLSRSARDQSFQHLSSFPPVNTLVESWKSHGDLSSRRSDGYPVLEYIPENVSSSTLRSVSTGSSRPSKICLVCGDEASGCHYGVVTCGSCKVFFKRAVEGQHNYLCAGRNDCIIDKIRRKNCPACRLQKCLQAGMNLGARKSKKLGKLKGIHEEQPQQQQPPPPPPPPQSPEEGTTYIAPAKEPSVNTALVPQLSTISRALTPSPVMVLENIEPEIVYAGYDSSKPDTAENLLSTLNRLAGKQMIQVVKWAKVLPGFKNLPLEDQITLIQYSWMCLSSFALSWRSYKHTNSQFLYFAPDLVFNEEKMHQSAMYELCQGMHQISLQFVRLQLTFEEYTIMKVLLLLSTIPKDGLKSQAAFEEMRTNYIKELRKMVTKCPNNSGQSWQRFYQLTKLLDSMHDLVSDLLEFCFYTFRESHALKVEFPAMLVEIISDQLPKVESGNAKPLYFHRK

[5] = Selectivity ratio of Ki for GR to Ki for AR
Glucocorticoid receptor [6] = target: T1, Glucocorticoid receptor; assay: Displacement of radiolabeled Dexamethasone from GR
Mus musculus = assay: Antiinflammatory activity in po dosed mouse assessed as carrageenan-induced hind paw edema measured after 3 hrs post dose; type: functional

AUC [1]: 35000 ng·h/mL | IC50 (Glucocorticoid receptor [2]): 1.5 nM | half-life [3]: 3.2 h | Ki [4]: 1520 nM | Ratio Ki [5]: > 500 | Ki (Glucocorticoid receptor [6]): 2.5 nM
SMILES: C[C@H]1c2c(cc(F)c(-c3cccc4cc[nH]c34)c2F)NC(C)(C)[C@@H]1O (racemic)
ED50 (Mus musculus): 6.6 mg/kg
